Columns and labels:
[1] = system: Human Umbilical Vein Endothelial Cells; assay: TER of endothelial cell monolayers (Example 4), umbilical vein; assay type: cell-based; settings: Danazol 1.0 μM, TER measurements/cm^2 of insert, blank subtracted
Protocol: (§1) […]. Assays were also performed in the same manner using passage 8 human brain endothelial cells and passage 8 human umbilical vein endothelial cells.
(§2) An initial TER measurement was taken for each insert using EVOM^2 voltohmmeter connected to an STX100 electrode (both from World Precision Instruments). Measurements were also taken at 24, 48, 72 and 144 hours. All data are presented as TER measurements/cm^2 of insert with TER of blank inserts subtracted.

HUVECs = assay: HUVEC invasion (BioCoat Matrigel Invasion Chambers); assay type: cell-based, human; settings: 24 hours
Protocol: BioCoat Matrigel Invasion Chambers were purchased from BD Biosciences (San Jose, Calif.). Inserts were rehydrated at 37° C. with 500 μl HBSS for 2 hours prior to use in humidified incubator. Trypsinized HUVECs were washed twice with warm EGM-2 containing 0.1% FCS and added to the upper chamber of the invasion insert at 100,000 cells in a total volume of 250 μl. […]. Non-invasive cells were removed from the upper chamber with moistened cotton swabs and then the inserts were washed twice with HBSS. The inserts were then submerged in 10 μM calcein AM prepared in HBSS and incubated for 4 hours. Fluorescence was determined in a microplate reader at 485 nm excitation and 595 nm emission.
All data is presented as representative experiment done in triplicate. Differences between subsets were analyzed using student t-test in Microsoft Excel. P<0.05 was considered statistically significant.

[2] = system: human retinal endothelial cells; assay: Actin stress fiber formation, rhodamine-phalloidin staining, TNFα (Example 7); settings: 30 minutes
Akt = Akt phosphorylation (CASE ELISA kit for AKT S473) in retinal endothelial cells; assay type: cell-based, human; settings: 2 hours
Protocol: The cells were grown in a 25 cm^2 flask to near confluence in EGM-2 medium (Lonza, Walkersville, Md.) containing 2% fetal calf serum (Lonza). […] The plate was incubated at 37° C. with 5% CO2 for 24 hours. […] After this incubation, the cells were fixed immediately with 4% formaldehyde, refrigerated, and the extent of phosphorylation of Akt determined using the Akt Cellular Activation of Signaling ELISA Kit (CASE™ Kit for AKT 5473; SABiosciences, Frederick, Md.) following the manufacturer's protocols. The CASE™ Kit for AKT S473 quantifies the amount of activated (phosphorylated) Akt protein relative to total Akt protein in parallel assays using a conventional ELISA format with colorimetric detection. The Akt phosphorylation site is serine 473 and is recognized by one of the antibodies used in one of the two parallel assays to provide a measure of activated Akt protein. The other antibody used in the other parallel assay recognizes Akt to provide a measure of total Akt protein. Both primary antibodies are detected using a horseradish peroxidase-labeled secondary antibody. Addition of the manufacturer's Developing Solution for 10 minutes, followed by addition of the manufacturer's Stop Solution, produces the result which can be measured colorimetrically.

[3] = system: human retinal endothelial cells; assay: TER of retinal endothelial cell monolayers with danazol and steroid receptor antagonists (Example 6); settings: 0.1 μM of each additive, background subtracted, divided by 0.33 cm^2
[4] = system: human renal glomerular microvascular endothelial cells; assay: Actin stress fiber formation (Example 11), glomerular cells; settings: for F-actin staining pattern: danazol 1 μM alone
RhoA = assay: Rho activation assay (GLISA) in retinal endothelial cells; assay type: cell-based, human
Protocol: This experiment was performed using a commercially-available Rho activation assay (GLISA) purchased from Cytoskeleton, Denver, Colo., following the manufacturer's protocol. […] Test compounds diluted in HBSS were placed in the incubator to equilibrate before addition to the cells. Then, 150 μl of each test compound was added to the appropriate culture wells, and the plates were incubated in the incubator for an additional 15 minutes. Then, thrombin was added to appropriate wells. After 1 minute, the cells were washed one time with 1.5 ml phosphate buffered saline and were then lysed with 100 μl GLISA lysis buffer supplemented with protease inhibitors. The extracts were scraped, transferred to microcentrifuge tubes and transferred to ice to preserve the active form of RhoA. All extracts were then cleared of debris by spinning at 10,000 rpms for 2 minutes at 4° C. The supernatants were transferred to new tubes and placed back on ice. Aliquots of each extract were removed for the GLISA assay and for protein determinations. All protein concentrations were within 10%, and the extracts were used at the achieved concentrations (equates to 15 μg total protein per well). The GLISA assay was performed using the reagents supplied in the kit.

[5] = system: human renal glomerular microvascular endothelial cells; assay: ECIS resistance (Example 12), glomerular cells; settings: danazol 1 μM alone
[6] = system: Human Brain Endothelial Cells; assay: TER of endothelial cell monolayers (Example 4), brain; assay type: cell-based; settings: Danazol 1.0 μM, TER measurements/cm^2 of insert, blank subtracted
Protocol: as §1, §2

[7] = system: human renal glomerular microvascular endothelial cells; assay: ECIS resistance (Example 13), glomerular cells, medium without dexamethasone
[8] = system: human retinal endothelial cells; assay: TER of retinal endothelial cell monolayers with danazol, steroid receptor antagonists and hormones (Example 10); settings: 0.1 μM of each additive, background subtracted, divided by 0.33 cm^2
[9] = passage 8 cells, 0.1 U/ml Thrombin + 1.0 μM compound
[10] = passage 12 cells, 0.1 U/ml Thrombin + 1.0 μM compound

**Q.** Which results are given for `C#C[C@]1(O)CC[C@H]2[C@@H]3CCC4=Cc5oncc5C[C@]4(C)[C@H]3CC[C@@]21C` [Danazol, 17α-pregna-2,4-dien-20-yno[2,3-d]-isoxazol-17β-ol]?
**A.** TER at 0 Hours ([1]; None 82.3): 70.2; TER at 24 Hours ([1]; None 217.2): 246.0; TER at 72 Hours ([1]; None 226.8): 270.7; TER at 144 Hours ([1]; None 227.3): 286.4; TER at 48 Hours ([1]; None 276.3): 364.1; effect on FCS-induced cell invasion (HUVECs; 10 μM): no effect; effect on FCS-induced cell invasion (HUVECs; 100 μM): no effect; effect on stress fiber development with TNFα ([2]; danazol 0.1 μM or 10 μM, TNFα 50 ng/ml): decreased the number of cells exhibiting stress fiber development; F-actin staining pattern ([2]; danazol 0.1 μM): diffuse staining throughout the cytoplasm; F-actin staining pattern ([2]; danazol 10.0 μM): stress fibers with multiple focal points; PERCENT INCREASE IN AKT PHOSPHORYLATION VERSUS CONTROL (Akt; 0.5 μM danazol): 73.8%; PERCENT INCREASE IN AKT PHOSPHORYLATION VERSUS CONTROL (Akt; 1.0 μM danazol): 66.7%; PERCENT INCREASE IN AKT PHOSPHORYLATION VERSUS CONTROL (Akt; 2.0 μM danazol): 101.6%; PERCENT INCREASE IN AKT PHOSPHORYLATION VERSUS CONTROL (Akt; 5.0 μM danazol): 40.5%; PERCENT INCREASE IN AKT PHOSPHORYLATION VERSUS CONTROL (Akt; 10.0 μM danazol): 115.3%; PERCENT INCREASE IN AKT PHOSPHORYLATION VERSUS CONTROL (Akt; 20.0 μM danazol): 161.3%; PERCENT INCREASE IN AKT PHOSPHORYLATION VERSUS CONTROL (Akt; 50.0 μM danazol): 98.6%; TER at 30 minutes ([3]; None 216.22): 255.26; TER at 120 minutes ([3]; None 234.23): 249.35; TER at 60 minutes ([3]; None 249.25): 267.27; TER at 24 Hours ([3]; None 312.31): 366.37; F-actin staining pattern ([4]; 15 minutes): perinuclear staining; F-actin staining pattern ([4]; 3 hours): diffuse staining throughout the cells with ruffled edges on many of the cells; F-actin staining pattern ([4]; 24 hours): staining similar to untreated controls; effect on S1P-induced cortical actin rings ([4]; danazol 1 μM with S1P 1 μM): seemed to enhance the cortical rings; effect on TNFα-induced stress fibers ([4]; danazol 1 μM with TNFα 1 ng/ml, all times): decreased the stress fiber formation and the thickness of the fibers at all times; Percent Inhibition vs. Untreated Control (RhoA; passage 8 cells, 1.0 μM): 73.89%; Mean OD (active RhoA) (RhoA; passage 8 cells, 1.0 μM, no thrombin, Untreated 0.102): 0.027; Mean OD (active RhoA) (RhoA; [9]): 0.373; Percent Inhibition vs. Thrombin (RhoA; [9]): 41.02%; Percent Inhibition vs. Untreated Control (RhoA; passage 12 cells, 1.0 μM): 6.82%; Mean OD (active RhoA) (RhoA; passage 12 cells, 1.0 μM, no thrombin, Untreated 0.455): 0.424; Mean OD (active RhoA) (RhoA; [10]): 0.859; Percent Inhibition vs. Thrombin (RhoA; [10]): 27.57%; period of greatest increase of ECIS [5]: 60 to 90 h; TER at 0 Hours ([6]; None 41.4): 32.3; TER at 24 Hours ([6]; None 115.7): 139.9; TER at 144 Hours ([6]; None 151.5): 125.8; TER at 72 Hours ([6]; None 154.0): 149.5; TER at 48 Hours ([6]; None 176.3): 188.4; persistence of increased ECIS ([7]; danazol 1 μM alone): about 90 hours; start of increase of ECIS compared to untreated cells ([7]; danazol 1 μM alone): about 3 hours; enhancement of ECIS (TER) compared to dexamethasone ([7]; danazol 1 μM versus dexamethasone 1 μM): not as great; TER at 5 minutes ([8]; None 250.30): 280.03; TER at 60 minutes ([8]; None 251.00): 313.06; TER at 30 minutes ([8]; None 262.31): 311.56; TER at 24 Hours ([8]; None 287.09): 348.35
